According to patent US3954793A, “1-(2-Propynyl)-1 H-indazole compounds” (priority 1973, dated 1976):

Columns and labels:
[1] = system: Rutgers A strain house flies; experiment: topical application, percent kill after 24 hours, resistant Rutgers A strain; format: in vivo, female); conditions: for percent kill after 24 hours, with GS 13005: GS 13005 1.0 + synergist 5.0 μg/fly
In short: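 Synergist plus mobam, Diazinon or GS 13005 dissolved in acetone, applied as 1.0 μl to the thorax of CO2-anaesthetised 3-to-5 day old female Rutgers A (resistant) house flies; doses in μg/fly. Flies held 10 per dish, 3-5 dishes per treatment, with skim milk; mortality scored at 24 h.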

male mice = experiment: extension of sleeping time of depressant drugs by synergists; format: in vivo, male mice (Swiss albino white); conditions: for Mean Sleeping Time, Noludar / Relative Sleeping Time, Noludar: Noludar 110 mg/kg; for Relative Sleeping Time, Noludar / Relative Sleeping Time, Secobarbital: treated/control; for Mean Sleeping Time, Secobarbital / Relative Sleeping Time, Secobarbital: Secobarbital 37 mg/kg
In short: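 Swiss albino male mice (~38 days, 25-30 g) given synergist at 74.0 or 110.0 mg/kg in corn oil 1 h before Secobarbital 37.0 mg/kg or Noludar 110.0 mg/kg in water. Sleeping time measured from drug dosing to righting-reflex recovery; relative sleeping time = treated ÷ drug-only control.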

[2] = system: IN/WHO strain house flies; experiment: topical application, percent kill after 24 hours, susceptible IN/WHO strain; format: in vivo, female); conditions: for percent kill after 24 hours, with Diazinon: Diazinon 0.03 + synergist 0.15 μg/fly; for percent kill after 24 hours, synergist alone (GS 13005 part of Table XXXI): GS 13005 0, synergist 1 μg/fly; for percent kill after 24 hours, synergist alone: insecticide 0, synergist 1 μg/fly
In short: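 Insecticide plus synergist in acetone, 1.0 μl applied to the thorax of CO2-anesthetized 3-to-5-day-old female IN/WHO house flies, doses in μg/fly. Flies held 10 per dish, 3-5 dishes per treatment, with skim milk. Percent mortality scored after 24 h.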

[3] = insecticide 0, synergist 7.5 μg/fly
[4] = synergist 110 mg/kg one hour prior
[5] = synergist 74 mg/kg one hour prior
[6] = insecticide 0, synergist 5.0 μg/fly
[7] = GS 13005 0.05 + synergist 0.25 μg/fly
[8] = GS 13005 0.10 + synergist 0.125 μg/fly
[9] = GS 13005 0.10 + synergist 0.25 μg/fly
[10] = GS 13005 0.10 + synergist 0.50 μg/fly
[11] = Diazinon 3.0 + synergist 3.0 μg/fly
[12] = Mobam 0.20 + synergist 1 μg/fly
[13] = Mobam 0.40 + synergist 2.0 μg/fly
[14] = Mobam 0.13 μg/fly, synergist/insecticide 0.5/1
[15] = Mobam 0.13 μg/fly, synergist/insecticide 1/1
[16] = Mobam 0.13 μg/fly, synergist/insecticide 5/1
[17] = Mobam 0.25 μg/fly, synergist/insecticide 0.5/1
[18] = Mobam 0.25 μg/fly, synergist/insecticide 1/1
[19] = Mobam 0.25 μg/fly, synergist/insecticide 2/1
[20] = Mobam 0.25 μg/fly, synergist/insecticide 5/1
[21] = Mobam 0.50 μg/fly, synergist/insecticide 0.5/1
[22] = Mobam 0.50 μg/fly, synergist/insecticide 1/1
[23] = Mobam 0.50 μg/fly, synergist/insecticide 2/1
[24] = Mobam 0.50 μg/fly, synergist/insecticide 5/1
[25] = Mobam 1.0 μg/fly, synergist/insecticide 0.5/1
[26] = Mobam 1.0 μg/fly, synergist/insecticide 1/1
[27] = Mobam 1.0 μg/fly, synergist/insecticide 2/1
[28] = Mobam 1.0 μg/fly, synergist/insecticide 5/1

Row | SMILES | Mean Sleeping Time, Noludar (male mice; [4]) | Relative Sleeping Time, Noludar (male mice; synergist 110 mg/kg) | Mean Sleeping Time, Secobarbital (male mice; [5]) | Relative Sleeping Time, Secobarbital (male mice; synergist 74 mg/kg) | Mean Sleeping Time, Secobarbital (male mice; [4]) | Relative Sleeping Time, Secobarbital (male mice; synergist 110 mg/kg) | percent kill after 24 hours, with GS 13005 [1] | percent kill after 24 hours, synergist alone [1, 6] | percent kill after 24 hours, with Diazinon [2] | percent kill after 24 hours, synergist alone (GS 13005 part of Table XXXI) [2] | percent kill after 24 hours, with GS 13005 [2, 8] | percent kill after 24 hours, with GS 13005 [2, 9] | percent kill after 24 hours, with GS 13005 [2, 10] | percent kill after 24 hours, synergist alone [2] | percent kill after 24 hours, with Mobam [2, 12] | other results
1 | C#CCON=Cc1cccc2ccccc12 [I-I] | 62 min | 2.1 | 31 min | 1.1 | 102 min | 1.7 | – | – | – | – | – | – | – | – | – | percent kill after 24 hours, with Diazinon ([1]; Diazinon 1.5 + synergist 7.5 μg/fly): 0%; percent kill after 24 hours, with Diazinon ([1]; Diazinon 3.0 + synergist 15 μg/fly): 53%; percent kill after 24 hours, synergist alone [1, 3]: 0%; percent kill after 24 hours, synergist alone ([1]; insecticide 0, synergist 15 μg/fly): 0%
2 | C#CCOCc1ccccc1[N+](=O)[O-] [II-P, 2-nitrobenzyl 2-propynyl ether] | 44 min | 1.5 | – | – | 46 min | 1.0 | 92% | 0% | 30% | 0% | 69% | 85% | 96% | 0% | – | percent kill after 24 hours, with GS 13005 [2, 7]: 10%
3 | C#CCON=C(C)c1ccc2ccccc2c1 [I-F] | 55 min | 1.4 | 32 min | 1.1 | 70 min | 2.2 | 95% | 0% | 24% | – | – | – | 45% | 0% | 47% | percent kill after 24 hours, with Diazinon ([1]; Diazinon 1.0 + synergist 3.0 μg/fly): 5%; percent kill after 24 hours, with Diazinon [1, 11]: 95%; percent kill after 24 hours, with Mobam ([1]; Mobam 0.30 + synergist 1.5 μg/fly): 38%
4 | C#CCOCc1c(Cl)cccc1[N+](=O)[O-] [II-K] | 75 min | 2.4 | 48 min | 1.5 | 44 min | 2 | 100% | 0% | – | 10% | – | – | 100% | 10% | 100% | percent kill after 24 hours, with Mobam [1, 13]: 97%; 24 hour percent mortality, Baygon with five parts II-K ([2]; Baygon 0.125 μg/fly, five parts synergist): 83%; 24 hour percent mortality, Bidrin with five parts II-K ([2]; Bidrin 0.063 μg/fly, five parts synergist): 0%; 24 hour percent mortality, Bidrin with five parts II-K ([2]; Bidrin 0.13 μg/fly, five parts synergist): 57%; 24 hour percent mortality, Dimetilan with five parts II-K ([2]; Dimetilan 0.031 μg/fly, five parts synergist): 7%; 24 hour percent mortality, Dimetilan with five parts II-K ([2]; Dimetilan 0.063 μg/fly, five parts synergist): 70%; 24 hour percent mortality, Dimetilan with five parts II-K ([2]; Dimetilan 0.13 μg/fly, five parts synergist): 100%; 24 hour percent mortality, Gardona with five parts II-K ([2]; Gardona 0.031 μg/fly, five parts synergist): 63%; 24 hour percent mortality, Gardona with five parts II-K ([2]; Gardona 0.063 μg/fly, five parts synergist): 100%; 24 hour percent mortality, HRS 1422 with five parts II-K ([2]; HRS 1422 0.125 μg/fly, five parts synergist): 77%; 24 hour percent mortality, Pyrolan with five parts II-K ([2]; Pyrolan 0.063 μg/fly, five parts synergist): 7%; 24 hour percent mortality, Pyrolan with five parts II-K ([2]; Pyrolan 0.13 μg/fly, five parts synergist): 40%; 24 hour percent mortality, Pyrolan with five parts II-K ([2]; Pyrolan 0.25 μg/fly, five parts synergist): 80%
5 | C#CCOCc1cccc2ccccc12 [II-R, α-napthylmethyl 2-propynyl ether] | 49 min | 1.7 | 35 min | 1.2 | 96 min | 1.6 | 55% | 0% | 22% | 0% | 49% | 65% | 68% | 0% | – | –
6 | C#CCOC(c1ccc(Cl)cc1)C(C)[N+](=O)[O-] (centres unmarked) [IV-C] | 74 min | 2.5 | 112 min | 4.7 | – | – | 95% | 0% | 29% | – | 63% | 75% | 89% | 0% | 64% | percent kill after 24 hours, with Diazinon [1, 11]: 19%; percent kill after 24 hours, with GS 13005 [2, 7]: 9%; percent kill after 24 hours, with Mobam ([2]; Mobam 0.20 + synergist 0.25 μg/fly): 39%; percent kill after 24 hours, with Mobam ([2]; Mobam 0.20 + synergist 0.50 μg/fly): 60%
7 | C#CCOCc1c(Cl)cccc1Cl [II-H] | 68 min | 2.2 | 44 min | 1.4 | 51 min | 2.1 | 100% | 7% | – | 10% | – | – | 100% | 10% | 100% | percent kill after 24 hours, with Mobam [1, 13]: 100%
8 | C#CCOCc1ccc(Cl)c(Cl)c1Cl [II-D] | 46 min | 1.0 | – | – | 60 min | 1.2 | – | – | 40% | – | – | – | – | 0% | 100% | percent kill after 24 hours, with Mobam ([1]; Mobam 0.60 + synergist 3.0 μg/fly): 92%; percent kill after 24 hours, synergist alone [1, 3]: 0%; percent mortality 24 hours, with Mobam [2, 14]: 7%; percent mortality 24 hours, with Mobam [2, 15]: 17%; percent mortality 24 hours, with Mobam [2, 16]: 50%; percent mortality 24 hours, with Mobam [2, 17]: 30%; percent mortality 24 hours, with Mobam [2, 18]: 63%; percent mortality 24 hours, with Mobam [2, 19]: 83%; percent mortality 24 hours, with Mobam [2, 20]: 97%; percent mortality 24 hours, with Mobam [2, 21]: 57%; percent mortality 24 hours, with Mobam [2, 22]: 100%; percent mortality 24 hours, with Mobam [2, 23]: 97%; percent mortality 24 hours, with Mobam [2, 24]: 100%; percent mortality 24 hours, with Mobam [2, 25]: 97%; percent mortality 24 hours, with Mobam [2, 26]: 100%; percent mortality 24 hours, with Mobam [2, 27]: 100%; percent mortality 24 hours, with Mobam [2, 28]: 100%; percent kill after 24 hours, with Mobam ([2]; Mobam 0.05 + synergist 0.25 μg/fly): 10%; percent kill after 24 hours, with Mobam ([2]; Mobam 0.10 + synergist 0.50 μg/fly): 50%
9 | C#CCOCc1cc(Cl)c(Cl)cc1Cl [II-F] | 38 min | 1.3 | – | – | 46 min | 1.0 | – | – | – | – | – | – | – | – | – | percent mortality 24 hours, with Mobam [2, 14]: 3%; percent mortality 24 hours, with Mobam [2, 15]: 10%; percent mortality 24 hours, with Mobam ([2]; Mobam 0.13 μg/fly, synergist/insecticide 2/1): 0%; percent mortality 24 hours, with Mobam [2, 16]: 23%; percent mortality 24 hours, with Mobam [2, 17]: 33%; percent mortality 24 hours, with Mobam [2, 18]: 57%; percent mortality 24 hours, with Mobam [2, 19]: 27%; percent mortality 24 hours, with Mobam [2, 20]: 73%; percent mortality 24 hours, with Mobam [2, 21]: 70%; percent mortality 24 hours, with Mobam [2, 22]: 83%; percent mortality 24 hours, with Mobam [2, 23]: 80%; percent mortality 24 hours, with Mobam [2, 24]: 97%; percent mortality 24 hours, with Mobam [2, 25]: 100%; percent mortality 24 hours, with Mobam [2, 26]: 93%; percent mortality 24 hours, with Mobam [2, 27]: 93%; percent mortality 24 hours, with Mobam [2, 28]: 100%
